Columns and labels:
PltM [1] = target: T1, PltM (Pseudomonas protegens, UniProt Q4KCZ3); assay: In vitro PltM halogenation assay with a single halide salt, substrate profile (Assay 1a-1d), LC-MS; type: biochemical
Experimental: The halogenation assays were carried out similarly to a recently described procedure. For substrate profile determination (Assay 1), 100 μL reactions were carried out in 30 mM sodium phosphate pH 7.4. As a halide source, 200 mM of either NaF (Assay 1a), NaCl (Assay 1b), NaBr (Assay 1c), or NaI (Assay 1d) was used. To ensure that PltM is incapable of fluorinating, an additional 200 μL reaction with 300 mM NaF was run. A 200 μL reaction with 400 mM NaBr was also run to ensure no additional bromination reaction occurred. Each reaction also contained a specified substrate (0.5 mM), FAD (0.2 mM), NADPH (5 mM), PltM (5.5 μM), and SsuE (5.0 μM). The reactions were initiated by adding NADPH under N2. The reaction tubes were tightly closed to avoid contact with air. The reaction mixtures were incubated at 25° C. for 3 h prior to extraction with EtOAc (4×100 μL). The organic layer was dried by a gentle flow of air, and the residue was dissolved in MeOH to prepare 1-10 μg/mL samples for LC-MS analysis.
(§1) The halogenation reaction products were analyzed by HPLC or LC-MS by injecting 10 μL of each sample. The compounds were separated by Reversed-phase HPLC at the flow rate of 0.2 mL/min by using the following program: eluent A=H2O; eluent B=MeCN; gradient=2% B for 5 min, increase to 100% B over a 30 min period, stay at 100% B for 9 min, decrease to 2% B over a 1 min period, and re-equilibrate the column at 2% B for 30 min.
(§2) For HPLC analysis, the molecules were observed by absorbance at λ=275 nm as described above. As necessary, the following mass spectrometer was operated in negative and positive modes with the following parameters: For negative mode, mass range, 80-600 m/z in profile mode; temperature, 550° C. and ion spray voltage floating, −4500 V, and for positive mode, mass range, 80-600 m/z in profile mode; temperature, 550° C. and ion spray voltage floating, 4500 V. The presence of each compound was analyzed by extracted ion chromatograph (XIC) with the expected mass ±0.05 Da for Assay 1 and Assay 2 and ±0.005 Da for Assay 3 (FIGS. 2A-C, 8-13, and 17-37; Tables 3-4 and 7).

PltM [2] = target: T1, PltM; assay: Halogenating competition assays in 1:1 or 10:1 mixtures of two halide salts (Assay 2a-2e), LC-MS; type: biochemical
Experimental: To establish if hetero-dihalogenation by PltM could be observed, halogenating competition assays in 1:1 or 10:1 mixtures of two different halide salts were performed (Assay 2). The reactions contained the same components as above except single halide salts were replaced with either a 1:1/NaCl:NaBr (Assay 2a), 1:1/NaCl:NaI (Assay 2b), or 1:1/NaBr:NaI (Assay 2c) mixtures (100 mM of each halide). The reactions were initiated by adding NADPH under N2. A 1:1/NaCl:NaBr reaction was also performed with 200 mM of each halide to test occurrence of homo-di- or hetero-chlorination/bromination, and 10:1/NaCl:NaI (Assay 2d) and 10:1/NaBr:NaI (Assay 2e) mixtures with 200 mM of NaCl or NaBr and 20 mM of NaI were tested to check whether chlorination or bromination could occur in the presence of iodide and whether iodination can occur with chlorination or bromination to yield a C1,I-substrate or Br,I-substrate. The reactions were incubated and processed as described above in Assay 1.
as §1, §2

PltM [3] = assay: Cell-based activity assay of PltM (Assay 3), wild-type PltM; parameters: species or system E. coli BL21 (DE3); settings: cells expressing wild-type PltM; 1 added to culture
Experimental: (§3) E. coli BL21 (DE3) cells were transformed with ppltM-pET28a, ppltMK87A-pET28a, ppltML111Y-pET28a, ppltMS404Y-pET28a, and ppltA-pET28a. The ppltA-pET28a plasmid overexpressing the halogenase PltA whose substrate is pyrrolyl-S-PltL (a peptidyl carrier protein-linked pyrrole) was used as a negative control. Five colonies from each transformant were cultured in 2×500 mL of LB medium (for ppltM-pET28a, ppltML111Y-pET28a, and ppltMS404Y-pET28a) and 1×500 mL of LB medium (for ppltMK87A-pET28a and ppltA-pET28a) with 50 μg/mL kanamycin at 37° C. and 200 rpm until attenuance of 0.2 at 600 nm. The cultures were then moved to 25° C. until attenuance of 0.5. Protein expression was induced by adding 0.2 mM IPTG to all […] flasks, and the cultures were incubated with shaking for 1 h. 12.5 μg/mL of compound 1 was added to 1×500 mL of LB medium containing ppltM-pET28a, ppltMK87A-pET28a, ppltML111Y-pET28a, ppltMS404Y-pET28a, and ppltA-pET28a. Compound 1 was not added to the three remaining flasks (negative controls). After additional incubation for 20 h, the cells were pelleted at 5,000 g for 10 min, and the supernatant was collected. The supernatant was extracted with EtOAc (3×330 mL), which was dried in vacuo. […]
(§4) The halogenation reaction products were analyzed by HPLC or LC-MS by injecting 10 μL of each sample. […]
(§5) For HPLC analysis, the molecules were observed by absorbance at λ=275 nm as described above. […]

PltM K87A = assay: Cell-based activity assay (Assay 3), PltM K87A; parameters: species or system E. coli BL21 (DE3); settings: cultures expressing PltM K87A
Experimental: as §3, §4, §5

PltM L111Y = assay: Cell-based activity assay (Assay 3), PltM L111Y; parameters: species or system E. coli BL21 (DE3); settings: cells expressing L111Y mutant
Experimental: as §3, §4, §5

PltM S404Y = assay: Cell-based activity assay (Assay 3), PltM S404Y; parameters: species or system E. coli BL21 (DE3); settings: cells expressing S404Y mutant
Experimental: as §3, §4, §5

PltA = target: T2, PltA (Pseudomonas fluorescens, UniProt Q4KCZ0); assay: Cell-based activity assay (Assay 3), PltA negative control; parameters: species or system E. coli BL21 (DE3); settings: cultures expressing PltA (negative control)
T2 construct: expressed in transfected cells; host or cells: E. coli BL21 (DE3)
T2 sequence (Q4KCZ0 whole entry): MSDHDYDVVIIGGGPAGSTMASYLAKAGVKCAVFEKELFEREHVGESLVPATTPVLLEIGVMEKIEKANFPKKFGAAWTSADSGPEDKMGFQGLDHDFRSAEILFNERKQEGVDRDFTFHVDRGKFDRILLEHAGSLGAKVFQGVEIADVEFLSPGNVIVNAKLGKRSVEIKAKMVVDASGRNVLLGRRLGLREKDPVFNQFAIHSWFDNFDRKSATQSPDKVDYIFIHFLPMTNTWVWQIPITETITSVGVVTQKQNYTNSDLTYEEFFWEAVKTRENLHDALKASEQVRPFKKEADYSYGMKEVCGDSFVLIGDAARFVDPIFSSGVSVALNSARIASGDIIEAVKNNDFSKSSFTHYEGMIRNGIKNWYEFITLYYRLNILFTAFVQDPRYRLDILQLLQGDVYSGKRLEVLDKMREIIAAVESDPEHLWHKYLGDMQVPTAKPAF
Experimental: as §3, §4, §5

T1 sequence (Q4KCZ3 entry or part of it): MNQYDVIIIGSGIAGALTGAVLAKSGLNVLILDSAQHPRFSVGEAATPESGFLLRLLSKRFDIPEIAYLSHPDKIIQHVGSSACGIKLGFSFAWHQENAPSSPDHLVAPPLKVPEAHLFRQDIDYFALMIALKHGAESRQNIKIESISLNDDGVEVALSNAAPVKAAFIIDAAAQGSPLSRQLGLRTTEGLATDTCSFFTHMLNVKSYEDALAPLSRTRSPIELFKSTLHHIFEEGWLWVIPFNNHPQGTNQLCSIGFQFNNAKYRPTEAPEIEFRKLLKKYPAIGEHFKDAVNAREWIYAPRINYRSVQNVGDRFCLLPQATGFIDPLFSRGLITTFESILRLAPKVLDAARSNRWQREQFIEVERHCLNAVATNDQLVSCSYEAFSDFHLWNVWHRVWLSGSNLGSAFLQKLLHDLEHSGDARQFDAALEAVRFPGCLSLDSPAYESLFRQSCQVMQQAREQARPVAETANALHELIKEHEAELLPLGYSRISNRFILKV

## Oc1cc(O)cc(O)c1 [Compound 1, phloroglucinol]
PltM [1]; NaBr as halide source (Assay 1c)
  bromination by PltM (products identified by LC-MS): only mono-halogenation
PltM [1]; NaCl as halide source (Assay 1b)
  chlorination by PltM (products identified by LC-MS): Mono- and dihalogenation
PltM [1]; NaF as halide source (Assay 1a)
  fluorination by PltM (products identified by LC-MS): not fluorinated
PltM [1]; NaI as halide source (Assay 1d)
  iodination by PltM (products identified by LC-MS): Mono- and dihalogenation
PltM [2]; 10-fold molar excess of NaBr over NaI
  products of competitive halogenation: mono-brominated, mono-iodinated, and diiodinated 1 were identified
PltM [2]; 10-fold molar excess of NaCl over NaI
  products of competitive halogenation: all possible mono- and dihalogenated products were identified, including chloro-iodinated 1
PltM [2]; two halides (Cl/Br, Cl/I or Br/I) at equimolar ratios
  products of competitive halogenation: mono-halogenated products of either halogen and diiodinated 1 where NaI was used
PltM [3]
  halogenation in fermentation culture: generated mono- and dichlorinated 1
PltM K87A
  halogenation in fermentation culture: No halogenated product was observed
PltM L111Y
  halogenation in fermentation culture: product yield was significantly reduced compared to wild-type
PltM S404Y
  halogenation in fermentation culture: product yield was significantly reduced compared to wild-type
PltA
  halogenation in fermentation culture: No halogenated product was observed

Source: patent publication US20200299671A1, “IMMOBILIZED MULTI-ENZYMATIC HALOGENATION SYSTEM” (priority 2019, published 2020)
